One experiment concerns the target T1, Caspase-3 (Homo sapiens, UniProt P42574).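 Further: Dose-response selectivity test against caspase-3 for candidate inhibitors of sentrin-specific proteases (SENPs).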
T1 sequence (P42574 whole entry): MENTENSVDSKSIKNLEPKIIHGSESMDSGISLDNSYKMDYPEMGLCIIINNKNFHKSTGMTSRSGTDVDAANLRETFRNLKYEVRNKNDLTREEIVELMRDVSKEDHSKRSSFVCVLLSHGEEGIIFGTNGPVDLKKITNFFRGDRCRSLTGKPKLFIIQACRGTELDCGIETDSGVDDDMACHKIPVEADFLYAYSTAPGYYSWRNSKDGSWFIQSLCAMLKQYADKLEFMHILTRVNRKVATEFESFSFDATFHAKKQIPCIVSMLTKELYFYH
The class given is functional.

Experiment [1] is described as follows: viability loss in HeLa cells – cytotoxicity control for MgcRacGAP inhibitor project, dose response (AID 624300). It is filed as functional.
The target of experiment [2] is Dual specificity mitogen-activated protein kinase kinase 1 (Homo sapiens, UniProt Q02750). In words: Navigating the Kinome. Panel member name: MAP2K1. The class given is functional.
Sequence of Dual specificity mitogen-activated protein kinase kinase 1 (Q02750 whole entry): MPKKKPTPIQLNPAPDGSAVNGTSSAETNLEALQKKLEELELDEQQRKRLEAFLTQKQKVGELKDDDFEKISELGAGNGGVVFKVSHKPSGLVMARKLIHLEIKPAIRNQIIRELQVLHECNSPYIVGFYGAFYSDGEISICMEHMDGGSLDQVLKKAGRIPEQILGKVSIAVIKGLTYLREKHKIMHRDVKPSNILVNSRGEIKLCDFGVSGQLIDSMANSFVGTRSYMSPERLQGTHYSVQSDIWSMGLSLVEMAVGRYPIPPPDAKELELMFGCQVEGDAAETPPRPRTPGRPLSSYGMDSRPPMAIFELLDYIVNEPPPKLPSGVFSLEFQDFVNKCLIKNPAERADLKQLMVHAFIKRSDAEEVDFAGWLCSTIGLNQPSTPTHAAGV
Experiment [3] addresses Serine/threonine-protein kinase D3 (Homo sapiens, UniProt O94806). It is filed as functional.
Experiment [4] deals with Serine/threonine-protein kinase TAO1 (Homo sapiens, UniProt Q7L7X3). It is filed as functional.
Sequence of Serine/threonine-protein kinase TAO1 (Q7L7X3 whole entry): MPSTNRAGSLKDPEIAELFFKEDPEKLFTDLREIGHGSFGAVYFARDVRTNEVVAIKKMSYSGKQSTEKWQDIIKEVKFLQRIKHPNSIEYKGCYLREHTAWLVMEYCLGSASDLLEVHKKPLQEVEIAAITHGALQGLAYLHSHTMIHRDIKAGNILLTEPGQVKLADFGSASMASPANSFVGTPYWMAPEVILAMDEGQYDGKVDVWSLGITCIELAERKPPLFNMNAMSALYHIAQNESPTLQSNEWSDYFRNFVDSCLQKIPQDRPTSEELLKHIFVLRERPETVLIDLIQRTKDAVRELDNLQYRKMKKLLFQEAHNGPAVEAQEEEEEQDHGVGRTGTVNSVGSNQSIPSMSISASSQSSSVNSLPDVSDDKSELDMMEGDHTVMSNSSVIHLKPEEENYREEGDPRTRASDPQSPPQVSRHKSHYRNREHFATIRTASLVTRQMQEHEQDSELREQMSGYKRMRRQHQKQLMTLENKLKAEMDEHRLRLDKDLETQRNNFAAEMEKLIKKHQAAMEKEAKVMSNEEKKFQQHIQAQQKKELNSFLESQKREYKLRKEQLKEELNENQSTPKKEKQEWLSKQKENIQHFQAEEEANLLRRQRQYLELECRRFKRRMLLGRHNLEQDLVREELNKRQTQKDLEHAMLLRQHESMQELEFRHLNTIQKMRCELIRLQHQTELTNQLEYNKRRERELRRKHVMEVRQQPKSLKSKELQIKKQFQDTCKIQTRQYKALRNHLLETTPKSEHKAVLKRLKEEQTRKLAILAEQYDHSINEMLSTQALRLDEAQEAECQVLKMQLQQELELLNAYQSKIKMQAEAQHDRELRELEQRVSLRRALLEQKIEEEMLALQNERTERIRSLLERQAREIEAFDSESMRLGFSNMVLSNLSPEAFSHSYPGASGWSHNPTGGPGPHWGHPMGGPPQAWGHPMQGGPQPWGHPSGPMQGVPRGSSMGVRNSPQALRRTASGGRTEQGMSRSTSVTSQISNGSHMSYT
Experiment [5] deals with Cyclin-dependent kinase 9 (Homo sapiens, UniProt P50750). The class given is functional.
Sequence of Cyclin-dependent kinase 9 (P50750 whole entry): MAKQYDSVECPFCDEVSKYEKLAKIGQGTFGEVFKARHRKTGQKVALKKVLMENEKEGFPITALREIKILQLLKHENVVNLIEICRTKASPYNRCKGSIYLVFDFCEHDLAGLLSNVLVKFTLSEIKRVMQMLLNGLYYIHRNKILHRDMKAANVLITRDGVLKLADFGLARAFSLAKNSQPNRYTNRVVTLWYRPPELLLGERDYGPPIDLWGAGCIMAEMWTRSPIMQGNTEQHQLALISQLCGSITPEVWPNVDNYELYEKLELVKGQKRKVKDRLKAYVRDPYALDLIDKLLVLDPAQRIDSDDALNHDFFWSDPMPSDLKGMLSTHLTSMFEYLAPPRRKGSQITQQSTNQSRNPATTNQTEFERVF
Experiment [6] concerns the target cAMP-dependent protein kinase catalytic subunit alpha (Homo sapiens, UniProt P17612). The class given is functional.
Experiment [7] has as its target Macrophage colony-stimulating factor 1 receptor (Homo sapiens, UniProt P07333). The class given is functional.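 Further: value comes from the Navigating the Kinome screening panel, CSF1R member.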
In experiment [8] the target is Dual specificity mitogen-activated protein kinase kinase 2 (Homo sapiens, UniProt P36507). In words: Navigating the Kinome. Panel member name: MAP2K2. The class given is functional.
Sequence of Dual specificity mitogen-activated protein kinase kinase 2 (P36507 whole entry): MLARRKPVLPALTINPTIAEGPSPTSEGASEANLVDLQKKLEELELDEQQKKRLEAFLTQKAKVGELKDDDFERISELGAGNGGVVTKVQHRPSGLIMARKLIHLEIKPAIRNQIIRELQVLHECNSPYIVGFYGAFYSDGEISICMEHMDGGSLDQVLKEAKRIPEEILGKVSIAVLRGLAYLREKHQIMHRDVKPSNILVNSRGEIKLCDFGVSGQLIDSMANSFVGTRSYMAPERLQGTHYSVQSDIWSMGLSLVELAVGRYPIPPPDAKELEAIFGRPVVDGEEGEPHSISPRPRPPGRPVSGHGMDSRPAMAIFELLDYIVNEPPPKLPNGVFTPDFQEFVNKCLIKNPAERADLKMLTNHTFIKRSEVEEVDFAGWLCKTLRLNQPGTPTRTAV
The target of experiment [9] is Calcium/calmodulin-dependent protein kinase type II subunit alpha (Homo sapiens, UniProt Q9UQM7). In words: Navigating the Kinome. Panel member name: CAMK2A. It is filed as functional.
Sequence of Calcium/calmodulin-dependent protein kinase type II subunit alpha (Q9UQM7 whole entry): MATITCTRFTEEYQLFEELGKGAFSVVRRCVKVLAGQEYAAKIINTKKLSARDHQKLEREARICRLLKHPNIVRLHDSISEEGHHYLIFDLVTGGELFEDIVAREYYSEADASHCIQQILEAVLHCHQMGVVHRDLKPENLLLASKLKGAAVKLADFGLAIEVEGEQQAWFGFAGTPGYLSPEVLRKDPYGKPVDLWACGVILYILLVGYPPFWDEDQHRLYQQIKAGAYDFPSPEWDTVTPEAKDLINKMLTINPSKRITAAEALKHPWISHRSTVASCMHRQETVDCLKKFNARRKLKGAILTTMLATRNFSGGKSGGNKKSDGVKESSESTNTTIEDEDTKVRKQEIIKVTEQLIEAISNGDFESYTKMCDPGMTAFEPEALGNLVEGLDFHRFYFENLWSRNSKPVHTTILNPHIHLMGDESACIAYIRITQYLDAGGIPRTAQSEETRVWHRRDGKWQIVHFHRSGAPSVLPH
Experiment [10] concerns the target T2, Alkaline phosphatase, tissue-nonspecific isozyme (Homo sapiens, UniProt P05186).
T2 sequence (P05186 whole entry): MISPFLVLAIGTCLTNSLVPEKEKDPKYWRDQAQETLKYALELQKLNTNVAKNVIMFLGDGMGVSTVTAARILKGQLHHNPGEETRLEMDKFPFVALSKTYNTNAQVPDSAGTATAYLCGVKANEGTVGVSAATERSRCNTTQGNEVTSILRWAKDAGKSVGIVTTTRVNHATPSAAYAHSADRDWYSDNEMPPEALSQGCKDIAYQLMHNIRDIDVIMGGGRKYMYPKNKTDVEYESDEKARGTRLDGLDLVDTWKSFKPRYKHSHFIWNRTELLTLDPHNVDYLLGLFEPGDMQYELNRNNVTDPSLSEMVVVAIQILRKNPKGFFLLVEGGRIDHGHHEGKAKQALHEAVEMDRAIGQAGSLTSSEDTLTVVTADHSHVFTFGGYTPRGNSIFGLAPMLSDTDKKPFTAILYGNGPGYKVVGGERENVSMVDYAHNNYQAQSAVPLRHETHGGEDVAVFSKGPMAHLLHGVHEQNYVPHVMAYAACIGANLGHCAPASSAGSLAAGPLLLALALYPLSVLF
Kind of experiment: activation of tissue-nonspecific alkaline phosphatase – biochemical, TNAP isozyme, mouse IAP uHTS hits, selectivity assay for mouse IAP activator project, dose response (AID 488880). It is filed as functional.

Experiment [11] deals with T3, Heat shock factor protein 1 (Mus musculus, UniProt P38532).
T3 sequence (P38532 whole entry): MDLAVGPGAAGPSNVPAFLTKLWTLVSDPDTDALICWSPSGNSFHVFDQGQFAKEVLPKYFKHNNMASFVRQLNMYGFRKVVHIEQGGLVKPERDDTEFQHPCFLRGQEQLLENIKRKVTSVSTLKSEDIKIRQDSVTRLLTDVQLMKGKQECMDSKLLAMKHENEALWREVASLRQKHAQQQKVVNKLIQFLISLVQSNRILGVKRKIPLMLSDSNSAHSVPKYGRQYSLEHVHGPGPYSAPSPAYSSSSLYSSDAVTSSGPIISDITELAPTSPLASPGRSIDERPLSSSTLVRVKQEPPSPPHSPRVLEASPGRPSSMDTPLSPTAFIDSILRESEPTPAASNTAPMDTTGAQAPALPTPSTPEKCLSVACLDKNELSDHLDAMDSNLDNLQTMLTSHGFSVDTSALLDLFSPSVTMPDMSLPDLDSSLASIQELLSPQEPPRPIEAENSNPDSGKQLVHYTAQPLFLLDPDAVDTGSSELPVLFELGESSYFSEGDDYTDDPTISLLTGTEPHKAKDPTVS
Kind of experiment: decrease of HSF1-responsive luciferase luminescence – cell-based, NIH3T3, dose retest, confirmation (AID 2382).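 Further: NIH3T3 fibroblasts with HSF1-driven luciferase reporter stressed by proteasome inhibitor MG132; luminescence from HSF1-driven luciferase expression after 8 hours of MG132 stress.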 It is filed as functional.

Experiment [12] deals with T4, Serine/threonine-protein phosphatase (Homo sapiens, UniProt Q9BPW0).
T4 sequence (Q9BPW0 whole entry): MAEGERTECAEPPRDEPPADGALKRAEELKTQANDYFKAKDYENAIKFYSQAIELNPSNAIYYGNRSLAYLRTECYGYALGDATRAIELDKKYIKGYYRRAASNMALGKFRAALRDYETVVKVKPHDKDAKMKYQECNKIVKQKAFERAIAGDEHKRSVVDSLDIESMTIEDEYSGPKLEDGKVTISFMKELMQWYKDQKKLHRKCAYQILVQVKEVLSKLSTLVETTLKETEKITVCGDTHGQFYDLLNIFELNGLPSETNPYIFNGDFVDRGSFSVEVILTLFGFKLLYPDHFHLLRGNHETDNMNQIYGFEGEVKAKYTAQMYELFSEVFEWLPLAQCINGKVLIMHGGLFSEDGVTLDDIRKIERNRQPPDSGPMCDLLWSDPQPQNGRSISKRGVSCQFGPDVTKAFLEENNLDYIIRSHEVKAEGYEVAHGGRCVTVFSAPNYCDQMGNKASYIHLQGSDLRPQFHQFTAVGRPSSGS
Kind of experiment: Counterscreen for inhibitors of PP1: fluorescence-based biochemical high throughput dose response assay to identify inhibitors of Protein Phosphatase 5 (PP5). [Related pubchem assays: 2034 (Summary (PP5 inhibitors)), 1987 (PP5 inhibitors in singlate), 2235 (PP1 inhibitors in singlate)].

SMILES strings stand for the structures. Calls of active or inactive are those of the source. Where only a bound is given, the exact number is not on record here.

Sequence of Macrophage colony-stimulating factor 1 receptor (P07333 whole entry): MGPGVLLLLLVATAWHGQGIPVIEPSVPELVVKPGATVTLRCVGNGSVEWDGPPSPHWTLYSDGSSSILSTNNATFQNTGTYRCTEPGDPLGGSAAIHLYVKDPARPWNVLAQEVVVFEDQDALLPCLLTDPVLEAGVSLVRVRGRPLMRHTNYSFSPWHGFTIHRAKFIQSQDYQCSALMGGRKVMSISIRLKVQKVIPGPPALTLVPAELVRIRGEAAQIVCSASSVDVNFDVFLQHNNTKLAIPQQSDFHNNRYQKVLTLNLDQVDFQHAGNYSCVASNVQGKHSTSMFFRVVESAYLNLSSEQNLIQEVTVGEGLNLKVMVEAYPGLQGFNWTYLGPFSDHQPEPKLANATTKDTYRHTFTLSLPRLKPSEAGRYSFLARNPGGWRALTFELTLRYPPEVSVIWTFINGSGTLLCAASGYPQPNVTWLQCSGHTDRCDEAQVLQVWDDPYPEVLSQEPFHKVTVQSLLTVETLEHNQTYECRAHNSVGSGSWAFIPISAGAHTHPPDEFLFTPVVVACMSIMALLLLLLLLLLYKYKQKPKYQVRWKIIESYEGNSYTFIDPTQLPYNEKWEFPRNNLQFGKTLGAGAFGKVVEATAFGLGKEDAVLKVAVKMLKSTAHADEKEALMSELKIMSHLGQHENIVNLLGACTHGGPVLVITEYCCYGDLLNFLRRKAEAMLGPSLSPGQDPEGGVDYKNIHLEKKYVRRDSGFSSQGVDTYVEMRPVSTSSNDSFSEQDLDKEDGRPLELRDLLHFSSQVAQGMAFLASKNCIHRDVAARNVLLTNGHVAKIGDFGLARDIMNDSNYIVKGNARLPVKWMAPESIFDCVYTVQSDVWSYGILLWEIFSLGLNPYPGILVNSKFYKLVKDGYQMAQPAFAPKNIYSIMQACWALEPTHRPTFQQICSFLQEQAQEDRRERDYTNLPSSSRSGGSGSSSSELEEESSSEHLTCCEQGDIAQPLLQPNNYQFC
Sequence of Serine/threonine-protein kinase D3 (O94806 whole entry): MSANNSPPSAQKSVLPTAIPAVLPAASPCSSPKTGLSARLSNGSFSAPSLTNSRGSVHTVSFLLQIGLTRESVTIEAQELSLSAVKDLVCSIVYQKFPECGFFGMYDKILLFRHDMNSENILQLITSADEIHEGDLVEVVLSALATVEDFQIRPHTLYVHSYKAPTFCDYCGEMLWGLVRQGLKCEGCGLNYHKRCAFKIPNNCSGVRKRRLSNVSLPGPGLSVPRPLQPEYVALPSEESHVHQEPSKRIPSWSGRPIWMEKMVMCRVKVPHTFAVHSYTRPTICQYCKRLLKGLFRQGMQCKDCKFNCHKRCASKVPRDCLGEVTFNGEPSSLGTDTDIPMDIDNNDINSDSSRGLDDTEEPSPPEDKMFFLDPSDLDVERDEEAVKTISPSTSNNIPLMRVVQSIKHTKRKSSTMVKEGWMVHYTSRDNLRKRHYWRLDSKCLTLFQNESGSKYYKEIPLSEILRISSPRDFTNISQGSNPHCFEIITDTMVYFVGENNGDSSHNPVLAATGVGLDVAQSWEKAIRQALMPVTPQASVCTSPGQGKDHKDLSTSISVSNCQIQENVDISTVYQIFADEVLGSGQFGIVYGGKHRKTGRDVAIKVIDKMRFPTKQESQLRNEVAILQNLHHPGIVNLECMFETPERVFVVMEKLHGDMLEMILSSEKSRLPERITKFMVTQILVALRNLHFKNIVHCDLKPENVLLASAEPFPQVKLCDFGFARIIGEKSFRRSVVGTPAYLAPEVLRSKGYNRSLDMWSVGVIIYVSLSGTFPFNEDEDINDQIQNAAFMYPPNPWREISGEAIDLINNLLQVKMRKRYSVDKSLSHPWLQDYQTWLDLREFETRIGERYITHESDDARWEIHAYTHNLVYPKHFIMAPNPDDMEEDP

Take `CC(=O)N(C1=C(Cl)C(=O)c2ccccc2C1=O)c1ccc(C(=O)O)cc1`: on Caspase-3, the 50% inhibitory concentration (IC50) was 14.2 µM (active). Moreover, in experiment [1], the half-maximal cytotoxic concentration (CC50) was 36.1 µM (active).

As to `Cc1ccc(-c2cc3nc(Br)cnc3[nH]2)cc1`, the Ki in experiment [2] is > 3.16 µM (inactive); in experiment [3] it was > 3.98 µM (inactive); in experiment [4] it was > 6.31 µM (inactive); in [5], > 1.58 µM (inactive); in experiment [6] it was > 1.26 µM (inactive); in experiment [7], > 2.51 µM (inactive). For the same compound, the Ki in experiment [8] is > 3.98 µM (inactive); in experiment [9], > 7.94 µM (inactive).

For the compound `O=C1C=C(O)c2c(O)cc(O)c(O)c2C1=O`, the EC50 in experiment [10] was > 100 µM (inactive).

As to `CC1(C)C=C2C(=NN(c3ccccc3)C(N)=C2C#N)CO1`, the EC50 in experiment [11] is > 195 µM (not active). The IC50 in experiment [12] is > 0.828 µM (active).

The values above are taken from ChEMBL document CHEMBL1201862, “PubChem BioAssay data set” (2004).
